From article PMC7400577 (Scientific Reports, 2020)
Substitutions are numbered along the chain they refer to. Where two headings read alike, the source gives them in different places.

Key:
hGAT3 wt = molecular target: T1, hGAT3 wt (Homo sapiens, UniProt P48066); assay: [3H]GABA uptake inhibition at wt hGAT3 transiently expressed in tsA201 cells; format: cell-based; conditions: 30 nM [3H]GABA, transient expression
T1 construct: expressed in transfected cells; host or cells: tsA201 cells, transient (PolyFect), pcDNA5/FRT vector
T1 sequence (P48066 1-632): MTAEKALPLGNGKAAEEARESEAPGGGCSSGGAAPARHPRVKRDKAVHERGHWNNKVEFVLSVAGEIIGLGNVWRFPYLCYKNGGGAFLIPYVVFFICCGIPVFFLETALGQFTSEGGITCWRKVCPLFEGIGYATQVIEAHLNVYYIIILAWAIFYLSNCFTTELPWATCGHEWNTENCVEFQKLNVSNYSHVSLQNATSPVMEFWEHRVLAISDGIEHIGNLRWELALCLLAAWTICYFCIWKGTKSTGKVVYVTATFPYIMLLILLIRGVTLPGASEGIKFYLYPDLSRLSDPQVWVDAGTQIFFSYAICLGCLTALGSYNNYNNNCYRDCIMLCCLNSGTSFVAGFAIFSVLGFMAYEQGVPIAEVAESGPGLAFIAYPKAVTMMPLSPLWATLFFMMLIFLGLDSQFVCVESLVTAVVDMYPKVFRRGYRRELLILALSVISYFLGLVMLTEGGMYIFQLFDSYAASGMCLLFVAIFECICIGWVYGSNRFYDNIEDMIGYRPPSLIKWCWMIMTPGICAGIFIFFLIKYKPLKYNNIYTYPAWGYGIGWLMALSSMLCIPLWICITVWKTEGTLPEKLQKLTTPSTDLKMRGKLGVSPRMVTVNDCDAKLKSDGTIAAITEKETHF

hGAT3 L314Q = molecular target: T2, hGAT3 L314Q (Homo sapiens, UniProt P48066, L314Q); assay: [3H]GABA uptake inhibition at hGAT3 L314Q transiently expressed in tsA201 cells; format: cell-based; conditions: 30 nM [3H]GABA, transient expression
T2 construct: expressed in transfected cells; host or cells: tsA201 cells, transient (PolyFect), pcDNA5/FRT vector
T2 sequence (P48066 1-632 L314Q): T1 sequence (P48066 1-632) with L314Q

BGT1 = conditions: competitive BGT1 inhibitor; cited from earlier work

IC50 (hGAT3 wt; read-out: IC50 GAT3 wt) | IC50 (hGAT3 wt; read-out: pIC50 ± S.E.M. GAT3 wt (converted)) | IC50 (hGAT3 L314Q; read-out: IC50 GAT3 L314Q) | IC50 (hGAT3 L314Q; read-out: pIC50 ± S.E.M. GAT3 L314Q (converted)) | Structure (SMILES) | IC50 (BGT1)
8.2 µM | 7.94 µM | 5.2 µM | 5.13 µM | NCCCC(=O)O [GABA, γ-Aminobutyric acid, reference compound] | –
– | – | – | – | N[C@@]12CC[C@H](C(=O)O)[C@@H]1C2 [compound 1] | 0.59 µM
